According to publication PMC6562844, “A Basic Study of Photodynamic Therapy with Glucose-Conjugated Chlorin e6 Using Mammary Carcinoma Xenografts” (Cancers, 2019):
Where a SMILES comes first, the peptide text is derived from it. The star is where a group is joined. Cbz = O=C(OCc1ccccc1)*; CH2F = FC*

Key:
[1] = design: method as in earlier work; details: cited from earlier work
SNP cells [2] = assay: Effect of a pan-caspase inhibitor on G-Ce6-PDT-induced cell death; format: cell-based, canine; details: 10 μM Z-VAD-FMK; 8 μg/mL G-Ce6; 5 J/cm^2
Procedure: SNP cells were incubated with 8 μg/mL G-Ce6 for 24 h in the presence (10 μM) or absence of Z-VAD-FMK (Medical & Biological Laboratories Co. Ltd., Aichi, Japan), which is a pan-caspase inhibitor. After washing with fresh media, the cells were irradiated with 650-nm laser light (10 mW/cm^2, 5 J/cm^2) emitted by a semiconductor laser, using an optical fiber with a microlens delivery attachment. Apoptosis was assessed at 4 h after laser irradiation using the Muse Annexin V and Dead Cell Assay kit.

SNP cells [3] = assay: Photodynamic cytotoxicity in SNP cells (Cell Counting Kit-8); format: cell-based, canine; details: 24 h incubation, 650-nm laser 10 mW/cm^2, viability 24 h after PDT
Procedure: We seeded 1 × 10^4 SNP cells into each well of 96-well plates (Corning Inc., New York, NY, USA) followed by overnight incubation. Cells were then incubated with various concentrations of G-Ce6 for 24 h at 37 °C. After washing with fresh media, the cells were irradiated with 650-nm light emitted by a semiconductor laser (Osada Electric Co., Ltd., Tokyo, Japan), using an optical fiber with a micro-lens delivery attachment (Pioneer Optics, Inc., Windsor Lock, CT, USA). PDT was performed at 10 mW/cm^2 in cells exposed to six concentrations of NPe6 and G-Ce6 (0, 0.064, 0.32, 1.6, 8.0, or 40.0 μg/mL) using four light doses (0, 1, 5, or 15 J/cm^2). The cells were then incubated for 24 h in the dark prior to examining cell viability using the Cell Counting Kit-8 (Dojindo, Kumamoto, Japan), according to the manufacturer’s instructions.

Compound: porfimer sodium
- AUC [1]: 1670.2 ± 71.6 µg·h/mL
- T1/2 [1]: 44.22 ± 8.10 h

Compound: COC(=O)C[C@H](NC(=O)[C@H](C)NC(=O)[C@@H](NC(=O)OCc1ccccc1)C(C)C)C(=O)CF [Z-VAD-FMK, reference compound] (Cbz-Val-Ala-Asp(OMe)-CH2F)
- Influence on number of Annexin V-positive cells and cytotoxicity induced by G-Ce6-mediated PDT (SNP cells [2]): did not influence

Compound: C=Cc1c(C)c2cc3nc(c(CC(=O)N[C@@H](CC(=O)[O-])C(=O)[O-])c4[nH]c(cc5nc(cc1[nH]2)C(C)=C5CC)c(C)c4C(=O)[O-])[C@@H](CCC(=O)[O-])[C@@H]3C.[Na+].[Na+].[Na+].[Na+] [NPe6, mono-L-aspartyl chlorin e6, reference compound]
- IC50 against SNP cells (SNP cells [3]; light dose 1 J/cm^2): 75.2 µg/mL
- IC50 against SNP cells (SNP cells [3]; light dose 5 J/cm^2): 30.4 µg/mL
- IC50 against SNP cells (SNP cells [3]; light dose 15 J/cm^2): 30.6 µg/mL
